In patent US11446276B2, “Extreme low dose THC as a therapeutic and prophylactic agent for Alzheimer's disease” (University of South Florida, priority 2015, dated 2022):
Entries after “also recorded” stand apart in the source; their conditions may differ.

Columns and labels:
[1] = target: Aβ peptide amino acids 1-10, the major B-cell epitope (Homo sapiens, UniProt P05067); assay: ELISA for THC interference with the major B cell epitope of Aβ; format: binding; conditions: each increasing concentration of THC; FIG. 3B
Description: In untreated samples, Aβ peptide increased in intensity for the first 20 minutes, followed by a plateauing of fluorescence at around 30 minutes, at which time the intensity remained constant for the duration of the study. […] Therefore, THC's direct interaction with the Aβ peptide will not dampen an immune response to clear the Aβ peptide. Further analysis with western blot was performed measuring the anti-aggregation properties of THC with Aβ peptide.

[2] = test system: isolated mitochondria from N2a/AβPPswe cells; assay: Respiratory function of isolated mitochondria (Clark type oxygen electrode); format: cell-based
Description: FIG. 14A is a graph showing basal mitochondrial function after treatment with THC and a combination of THC and melatonin. N2a/AβPPswe cells were cultured in 10 cm tissue culture plate and then treated with drugs for 36 hours and mitochondria were harvested and tested for their ability of using oxygen utilization. Samples were loaded as follows; Ctrl, Control, or 10^−5 M Melatonin with 2.5 nM THC, 10^−6 M Melatonin with 2.5 nM THC, 2.5 nM THC, 10^−5 M Melatonin, or 10^−6 M Melatonin+2.5 nM THC.
FIG. 14B is a graph showing mitochondrial function in the presence of FCCP after treatment with THC alone as well as with a combination of THC and melatonin. N2a/AβPPswe cells were cultured in 10 cm tissue culture plate and then treated with drugs for 36 hours and mitochondria were harvested and tested for their ability of using oxygen utilization. Samples were loaded as follows; Ctrl, Control, or 10^−5 M Melatonin with 2.5 nM THC, 10^−6 M Melatonin with 2.5 nM THC, 2.5 nM THC, 10^−5 M Melatonin, or 10^−6 M Melatonin+2.5 nM THC.

[3] = test system: GSK-3β; conditions: 10 mg/kg of body weight of THC; mice; cited from earlier work

Aβ peptide amino acids 1-10, the major B-cell epitope, sequence (P05067 672-711 limits assumed): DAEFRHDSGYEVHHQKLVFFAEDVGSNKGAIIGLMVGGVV

With CCCCCc1cc(O)c2c(c1)OC(C)(C)[C@@H]1CCC(C)=C[C@@H]21 [THC, Δ9-tetrahydrocannabinol] the “Interference with the major B cell epitope of Aβ (ELISA absorbance)” value [1] was “No identified interference; also recorded: no significant difference in absorbance”, the “Respiration / oxygen utilization of isolated mitochondria” value ([2]; 2.5 nM THC alone or with 10 μM or 1 μM melatonin, early and late stages of respiration) was “higher oxygen utilization” and the “Basal mitochondrial function (oxygen utilization)” value ([2]; 36 hours treatment, FIG. 14A) was “enhance mitochondrial function”. The “Mitochondrial function in the presence of FCCP” value ([2]; 36 hours treatment, FIG. 14B) was “enhance mitochondrial function” and the “Phosphorylation of GSK-3β” value [3] was “increased phosphorylation of GSK-3β”.
